Test results as given in publication PMC9334755 (Cancer Biology & Medicine, 2021).
Where two headings read alike, the source gives them in different places.

Experiments:
PTK6 = PTK6 (Homo sapiens, UniProt Q13882); assay: Protein kinase panel at 1 µM, PTK6; format: biochemical
[1] = human
ITK = ITK (Homo sapiens, UniProt Q08881); assay: HTRF assay of ITK activity
Procedure: Homogeneous time-resolved fluorescence (HTRF) assays were performed with a HTRF® KinEASE™-TK kit (Trevigen).

Caco-2 = details: human
From the text: protein kinases Beagle dog PK
Kinase Inhibition (%) Kinase Inhibition (%) IV Oral
Species Plasma protein binding (%)
Tcells, and B-cell lymphoma
Compound Caco-2 permeability assay
(1 picture or pasted object on this page, not shown here)

EPHA3 = EPHA3 (Homo sapiens, UniProt P29320); assay: Protein kinase panel at 1 µM, EPHA3; format: biochemical
Sequence of EPHA3 (P29320 21-983, species assumed): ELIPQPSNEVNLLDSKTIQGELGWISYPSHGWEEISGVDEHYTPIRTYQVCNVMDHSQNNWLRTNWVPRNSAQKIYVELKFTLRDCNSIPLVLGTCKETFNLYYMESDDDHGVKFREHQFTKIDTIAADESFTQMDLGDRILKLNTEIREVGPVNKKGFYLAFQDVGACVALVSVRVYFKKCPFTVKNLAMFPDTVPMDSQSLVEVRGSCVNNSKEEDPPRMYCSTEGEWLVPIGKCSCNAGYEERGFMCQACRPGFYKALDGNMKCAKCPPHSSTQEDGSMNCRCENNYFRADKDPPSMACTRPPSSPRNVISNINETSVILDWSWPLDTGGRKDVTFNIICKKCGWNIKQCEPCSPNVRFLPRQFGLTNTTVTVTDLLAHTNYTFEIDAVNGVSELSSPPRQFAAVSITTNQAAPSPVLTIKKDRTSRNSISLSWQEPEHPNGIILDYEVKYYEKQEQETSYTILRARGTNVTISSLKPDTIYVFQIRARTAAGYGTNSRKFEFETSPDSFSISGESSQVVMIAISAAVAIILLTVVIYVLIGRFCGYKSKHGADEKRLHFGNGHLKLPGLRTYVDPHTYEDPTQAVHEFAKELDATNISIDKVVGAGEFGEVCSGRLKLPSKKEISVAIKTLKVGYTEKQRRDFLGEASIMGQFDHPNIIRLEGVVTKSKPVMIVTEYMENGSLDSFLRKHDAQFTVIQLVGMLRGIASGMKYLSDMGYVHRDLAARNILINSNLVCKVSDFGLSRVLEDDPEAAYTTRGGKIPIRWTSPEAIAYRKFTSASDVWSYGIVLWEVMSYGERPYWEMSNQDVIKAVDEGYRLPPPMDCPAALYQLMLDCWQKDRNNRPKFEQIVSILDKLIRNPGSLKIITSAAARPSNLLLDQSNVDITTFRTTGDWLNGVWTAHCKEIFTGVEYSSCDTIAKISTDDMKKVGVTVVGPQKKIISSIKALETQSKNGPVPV

Sequence of ITK (Q08881 whole entry): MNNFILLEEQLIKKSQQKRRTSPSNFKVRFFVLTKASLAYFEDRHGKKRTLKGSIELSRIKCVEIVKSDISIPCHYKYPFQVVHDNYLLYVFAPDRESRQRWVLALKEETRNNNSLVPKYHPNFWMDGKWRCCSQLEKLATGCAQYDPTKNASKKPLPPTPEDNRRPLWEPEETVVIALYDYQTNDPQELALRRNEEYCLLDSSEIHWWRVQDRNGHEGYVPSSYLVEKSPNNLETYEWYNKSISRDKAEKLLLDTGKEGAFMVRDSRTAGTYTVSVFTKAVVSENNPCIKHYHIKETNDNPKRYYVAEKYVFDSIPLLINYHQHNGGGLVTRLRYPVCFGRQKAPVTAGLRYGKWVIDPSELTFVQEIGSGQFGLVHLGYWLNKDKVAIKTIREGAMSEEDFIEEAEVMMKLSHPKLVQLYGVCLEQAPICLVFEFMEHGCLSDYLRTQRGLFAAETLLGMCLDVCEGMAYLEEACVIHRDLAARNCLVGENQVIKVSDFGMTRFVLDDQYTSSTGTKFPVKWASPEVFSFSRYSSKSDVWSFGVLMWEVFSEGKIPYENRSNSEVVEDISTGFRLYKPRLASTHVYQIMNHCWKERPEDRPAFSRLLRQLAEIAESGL
Sequence of PTK6 (Q13882 whole entry): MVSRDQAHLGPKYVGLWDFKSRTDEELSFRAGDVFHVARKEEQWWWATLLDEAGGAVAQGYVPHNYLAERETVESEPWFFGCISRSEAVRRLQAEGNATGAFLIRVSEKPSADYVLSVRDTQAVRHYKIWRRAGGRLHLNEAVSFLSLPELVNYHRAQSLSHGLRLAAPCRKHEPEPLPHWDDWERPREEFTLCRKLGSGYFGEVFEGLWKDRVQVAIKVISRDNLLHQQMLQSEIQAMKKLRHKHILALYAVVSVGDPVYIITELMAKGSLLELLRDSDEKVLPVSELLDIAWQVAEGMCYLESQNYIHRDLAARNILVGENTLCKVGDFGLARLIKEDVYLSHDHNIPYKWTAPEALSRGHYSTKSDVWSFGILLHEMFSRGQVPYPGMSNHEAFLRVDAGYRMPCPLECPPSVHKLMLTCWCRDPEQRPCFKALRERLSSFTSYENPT

## COC/C=C/C(=O)N1CC[C@@H](n2nc(-c3ccc(Oc4ccccc4)cc3)c(C(N)=O)c2N)C1 [SY-1530]
PTK6
  Inhibition (%), PTK6: 92%
[1]
  Plasma protein binding (%): 95.6%
ITK; IC50 SY-1530 over IC50 ibrutinib
  Ratio, ITK: > 13
ITK; read-out: IC50 toward ITK, HTRF
  IC50: > 1000 nM
Caco-2; Caco-2, 0.1 μM
  Ratio = Papp BL→AP/Papp AP→BL: 2.46
Caco-2; Caco-2, 1 μM
  Ratio = Papp BL→AP/Papp AP→BL: 2.58
Caco-2; Caco-2, 10 μM
  Ratio = Papp BL→AP/Papp AP→BL: 2.92
EPHA3
  Inhibition (%), EPHA3: −2%
